From ChEMBL document CHEMBL5260828, “Amphiphilic glycoconjugates as potential anti-cancer chemotherapeutics” (Eur J Med Chem, 2018)
≈ marks a conversion by molar mass, not a printed value. Each block holds one compound with its values, some of them ahead of it.

Legend:
[1] = system: NUGC-3; test: Cytotoxicity against human NUGC-3 cells assessed as cell growth inhibition by measuring lethal dose incubated for 30 mins by MTT assay; format: functional; details: NUGC-3, 0.5 h, read-out: LD50 (the source's name)
[2] = system: B16; test: Cytotoxicity against mouse B16 cells; format: functional, cell-based; details: Mus musculus, B16; read-out: IC50
[3] = system: HeLa S3; test: Cytotoxicity against human HeLa S3 cells; format: functional, cell-based; details: Homo sapiens, HeLa S3; read-out: IC50
[4] = system: P388/ADM; test: Cytotoxicity against mouse P388/ADM cells; format: functional, cell-based; details: Mus musculus, P388/ADM; read-out: IC50
[5] = system: NCI-H69; test: Cytotoxicity against human NCI-H69 cells; format: functional, cell-based; details: Homo sapiens, NCI-H69; read-out: IC50
[6] = system: P388; test: Cytotoxicity against mouse P388 cells; format: functional, cell-based; details: Mus musculus, P388; read-out: IC50
[7] = system: PK9; test: Cytotoxicity against human PK9 cells assessed as inhibition of cell growth incubated for 72 hrs by CellTiter 96 aqueous one solution assay; format: functional, cell-based; details: PK9, 72 h
[8] = system: MIA PaCa-2; test: Cytotoxicity against human MIA PaCa-2 cells assessed as inhibition of cell growth incubated for 72 hrs by CellTiter 96 aqueous one solution assay; format: functional, cell-based; details: MIA PaCa-2, 72 h
[9] = system: HL-60; test: Cytotoxicity against human HL-60 cells assessed as inhibition of cell proliferation incubated for 72 hrs by MTT assay; format: functional, cell-based; details: HL-60, 72 h
[10] = system: HeLa; test: Cytotoxicity against human HeLa cells assessed as inhibition of cell proliferation incubated for 72 hrs by MTT assay; format: functional, cell-based
[11] = system: Ca9-22; test: Cytotoxicity against human Ca9-22 cells assessed as cell growth inhibition by MTT colorimetric assay; format: functional, cell-based
[12] = system: HepG2; test: Cytotoxicity against human HepG2 cells assessed as cell growth inhibition by MTT colorimetric assay; format: functional, cell-based
[13] = system: MDA-MB-231; test: Cytotoxicity against human MDA-MB-231 cells assessed as cell growth inhibition by MTT colorimetric assay; format: functional, cell-based
[14] = system: Hep 3B2; test: Cytotoxicity against human Hep3B cells assessed as cell growth inhibition by MTT colorimetric assay; format: functional, cell-based
[15] = system: HCT-116; test: Cytotoxicity against human HCT-116 cells assessed as cell growth inhibition incubated for 72 hrs by celltiter 96 aqueous cell proliferation assay; format: functional, cell-based; details: HCT-116, 72 h
[16] = system: AGS; test: Antiproliferative activity against human AGS cells assessed as inhibition of cell growth incubated for 48 hrs by MTT assay; format: functional, cell-based
[17] = system: HCT-116; test: Antiproliferative activity against human HCT-116 cells assessed as inhibition of cell growth incubated for 48 hrs by MTT assay; format: functional, cell-based
[18] = system: SF-268; test: Antiproliferative activity against human SF-268 cells assessed as inhibition of cell growth incubated for 48 hrs by MTT assay; format: functional, cell-based
[19] = system: MCF7; test: Antiproliferative activity against human MCF7 cells assessed as inhibition of cell growth incubated for 48 hrs by MTT assay; format: functional, cell-based
[20] = system: NCI-H460; test: Antiproliferative activity against human NCI-H460 cells assessed as inhibition of cell growth incubated for 48 hrs by MTT assay; format: functional, cell-based
[21] = system: Lung NSCLC-N6 cell-line; test: Cytotoxicity against human Lung NSCLC-N6 cell-line by MTT colorimetric assay; format: functional, cell-based
[22] = system: NUGC-3; test: Cytotoxicity against human NUGC-3 cells assessed as cell growth inhibition incubated for 30 mins by MTT assay; format: functional, cell-based; details: NUGC-3, 0.5 h

SMILES: CCCCCCCCCCCCCCCCCC(=O)OCC(O)CO[C@@H]1O[C@H](CS(=O)(=O)O)[C@@H](O)[C@H](O)[C@H]1O (stereo not given in full)
- CC50 [1]: 135 µM

SMILES: CCCCCCCCCCCCCCCCCC(=O)OCC(O)CO[C@H]1O[C@H](CS(=O)(=O)O)[C@@H](O)[C@H](O)[C@H]1O (stereo not given in full)
- CC50 [1]: 150 µM

SMILES: C/C=C(\C)[C@H](O[C@@H]1O[C@H](CO)[C@@H](O)[C@H](O)[C@H]1O)[C@H](C)/C=C(C)/C=C/C/C(C)=C/Cc1nc(OC)c(OC)c(O)c1C
- IC50 [2]: 0.0074 µg/mL (≈ 0.0128 µM)
- IC50 [3]: 0.11 µg/mL (≈ 0.19 µM)
- IC50 [4]: 0.25 µg/mL (≈ 0.433 µM)
- IC50 [5]: 0.019 µg/mL (≈ 0.0329 µM)
- IC50 [6]: 0.36 µg/mL (≈ 0.623 µM)

SMILES: CCCCCCCCCCCCc1cn(CC[C@H]2NC[C@@H](O)[C@H]2O)nn1
- IC50 [7]: 19 µM
- IC50 [8]: 19 µM

SMILES: CCCCCCCCCCCCc1cn(C[C@@H]2N[C@@H](C)[C@@H](O)[C@H]2O)nn1
- IC50 [7]: 19 µM
- IC50 [8]: 19 µM

SMILES: C/C=C/C/C(C)=C\[C@H]1C/C=C/C=C/C[C@H](C)/C=C(\C)[C@@H](OC)C/C=C/[C@@H](O)CC(=O)O1
- IC50 [9]: 0.03 µM
- IC50 [10]: 0.049 µM

SMILES: COc1nc(C/C=C(\C)C/C=C/C(C)=C/[C@@H](C)[C@@H](O[C@@H]2O[C@H](CO)[C@@H](O)[C@H](O)[C@H]2O)/C(C)=C/CO)c(C)c(O)c1OC
- IC50 [2]: 0.21 µg/mL (≈ 0.354 µM)
- IC50 [3]: 0.76 µg/mL (≈ 1.28 µM)
- IC50 [4]: 0.78 µg/mL (≈ 1.31 µM)
- IC50 [5]: 0.066 µg/mL (≈ 0.111 µM)
- IC50 [6]: 1.6 µg/mL (≈ 2.69 µM)

SMILES: CCCCCCCCCCCCOC[C@@H](COO)O[C@@H]1OC[C@@H](O)[C@@H](O)[C@@H]1O
- IC50 [11]: 9.2 µg/mL (≈ 22.5 µM)
- IC50 [12]: 9.2 µg/mL (≈ 22.5 µM)
- IC50 [13]: 9.2 µg/mL (≈ 22.5 µM)
- IC50 [14]: 9.2 µg/mL (≈ 22.5 µM)

SMILES: CCCCCCCCCCCCc1cn(C[C@H]2NC[C@H](O)[C@@H]2O)nn1
- IC50 [7]: 19 µM
- IC50 [8]: 19 µM

SMILES: CCCCCCCCCCCCCCCCCC(=O)OC[C@H](COC1O[C@H](CS(=O)(=O)[O-])[C@@H](O)[C@H](O)[C@H]1O)OCC(=O)CCCCCCCCCCCCCCC.[Na+] (stereo not given in full)
- CC50 [1]: 80 µg/mL

SMILES: CCCCCCCCCCCCCCOC[C@@H](COO)O[C@@H]1OC[C@@H](O)[C@@H](O)[C@@H]1O
- IC50 [11]: 9.2 µg/mL (≈ 21.1 µM)
- IC50 [12]: 9.2 µg/mL (≈ 21.1 µM)
- IC50 [13]: 9.2 µg/mL (≈ 21.1 µM)
- IC50 [14]: 9.2 µg/mL (≈ 21.1 µM)

SMILES: CO[C@@H]1[C@H](O[C@H]2C[C@]3(O)O[C@H]([C@@H]2C)[C@H](C)[C@H](OC)/C=C(\C)C[C@H](/C=C/C#C[C@H]2C[C@@H]2Cl)OC(=O)[C@H]3C)O[C@@H](C)[C@H]2NC(=O)O[C@]21C
- IC50 [15]: 30 µM

- IC50 [16]: 0.039 µg/mL (≈ 0.0499 µM)
- IC50 [17]: 0.039 µg/mL (≈ 0.0499 µM)
- IC50 [19]: 0.039 µg/mL (≈ 0.0499 µM)
- IC50 [20]: 0.039 µg/mL (≈ 0.0499 µM)
SMILES: CC/C=C\C/C=C\C/C=C\CCCCCCCC(=O)OCC(CO[C@@H]1O[C@H](CO)[C@H](O)[C@H](O)[C@H]1O)OC(=O)CCCCCCCCCCCCCCCCC (stereo not given in full)
- IC50 [18]: 0.039 µg/mL (≈ 0.0499 µM)

SMILES: CO[C@@H]1/C=C(\C)C[C@H](/C=C/C#C[C@H]2C[C@@H]2Cl)OC(=O)[C@@H](C)[C@]2(O)C[C@H](O[C@@H]3O[C@@H](C)[C@H](O[C@@H]4O[C@@H](C)[C@H](O)[C@@](C)(O)[C@H]4OC)[C@@](C)(O)[C@H]3OC)[C@@H](C)[C@@H](O2)[C@@H]1C
- IC50 [21]: 15.1 µg/mL (≈ 18.5 µM)

SMILES: CO[C@@H]1/C=C(\C)C[C@H](/C=C/C=C/C#C[C@@H]2C[C@H]2Cl)OC(=O)C[C@]2(O)C[C@H](O[C@@H]3O[C@@H](C)[C@H]4NC(=O)O[C@@]4(C)[C@H]3OC)[C@H](C)[C@@H](O2)[C@@H]1C
- IC50 [15]: 61.9 µM

SMILES: C/C=C/C/C(C)=C\[C@H]1C/C=C/C=C/C[C@H](C)/C=C(\C)[C@@H](OC)CCC[C@@H](O)CC(=O)O1
- IC50 [9]: 0.024 µM
- IC50 [10]: 0.046 µM

SMILES: CCCCCCCCCCCCCCCCCC(=O)OCC(O)CO[C@H]1O[C@H](CO)[C@@H](O)[C@H](O)[C@H]1O (stereo not given in full)
- IC50 [22]: 110 µM
